Measured values reported in the NIST ThermoML archive (doi:10.1016/j.tca.2014.09.011).
Where “and” joins values, the source holds several entries; their conditions need not be identical. Equal entries are not always repeated. Numbers after ± are expanded uncertainties.

Details: Liquid, Rate of evaporation

Cc1ccccc1 [toluene]
Details	vapor or sublimation pressure [kPa]
300.89 K	4.47 ± 0.45
305.64 K	5.17 ± 0.52
305.68 K	5.23 ± 0.52
324.21 K	13.4 ± 1.3

CCCCCCCCO [octan-1-ol]
Details	vapor or sublimation pressure [kPa]
319.82 K	0.06 ± 0.01
324.46 K	0.09 ± 0.01
333.93 K	0.21 ± 0.02
343.23 K	0.38 ± 0.04
343.39 K	0.4 ± 0.1
348.15 K	0.54 ± 0.05
362.32 K	1.36 ± 0.14
390.95 K	6.14 ± 0.61

CCCCO [butan-1-ol]
Details	vapor or sublimation pressure
301.02 K	1.09 ± 0.11 kPa
305.59 K	1.46 ± 0.15 kPa
310.16 K	1.92 ± 0.19 kPa
310.26 K	1.96 ± 0.2 kPa
310.29 K	1.9 ± 0.2 kPa and 1.91 ± 0.19 kPa
314.75 K	2.67 ± 0.27 kPa
314.76 K	2.6 ± 0.3 kPa and 2.5 ± 0.3 kPa
314.81 K	2.61 ± 0.26 kPa
321.34 K	4.15 ± 0.42 kPa and 4.19 ± 0.42 kPa
322.07 K	4.33 ± 0.43 kPa
322.58 K	4.48 ± 0.45 kPa
322.69 K	4.52 ± 0.45 kPa
323.09 K	4.54 ± 0.45 kPa
323.14 K	4.54 ± 0.45 kPa
323.5 K	4.62 ± 0.46 kPa
323.67 K	4.69 ± 0.47 kPa
323.78 K	4.75 ± 0.48 kPa
323.9 K	4.74 ± 0.47 kPa
324.18 K	4.79 ± 0.48 kPa
324.28 K	4.85 ± 0.49 kPa
324.57 K	4.91 ± 0.49 kPa
324.59 K	4.87 ± 0.49 kPa
324.8 K	4.95 ± 0.5 kPa
324.91 K	4.98 ± 0.5 kPa
333.51 K	8.09 ± 0.81 kPa
334.32 K	8.38 ± 0.84 kPa
341.78 K	12.79 ± 1.3 kPa
343.2 K	13.52 ± 1.4 kPa
343.36 K	13.71 ± 1.4 kPa
343.39 K	14.44 ± 1.4 kPa
352.7 K	21.03 ± 2.1 kPa
360.58 K	32.09 ± 3.2 kPa

CCO [ethanol]
Details	vapor or sublimation pressure [kPa]
301.1 K	9.07 ± 0.91
305.47 K	10.94 ± 1.1
305.54 K	11.69 ± 1.2
305.63 K	11.08 ± 1.1
305.68 K	11.85 ± 1.2
